Data as given in patent US10179790B2 (THOMAS HELLEDAYS STIFTELSE FOR MEDICINSK FORSKNING, priority 2014, dated 2019).

Columns and labels:
MTH1 = MTH1 (Homo sapiens, UniProt P36639); assay: MTH1 enzymatic assay and IC50 value determination (malachite green, 96- and 384-well format); type: biochemical; conditions: hydrolysis of dGTP (100 μM), MTH1 6 nM, pyrophosphatase-coupled malachite green, 15 minutes at 22° C.
How it was run: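 MTH1 (6 nM) hydrolysed dGTP (100 μM) for 15 min at 22 °C in Tris-acetate buffer with Mg2+, DTT, Tween 20 and excess pyrophosphatase, 1% DMSO. Pi detected with malachite green at 630 nm. IC50 from nonlinear 4-parameter fit of 11–12-point dilution series.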

cancer cell = assay: Cell viability assay (resazurin); type: cell-based; conditions: 72 h; 3 days with compound, resazurin fluorescence; cell line not named
Procedure: The utility of the compounds of the present invention can be illustrated, for example, by their activity in vitro in the cancer cell clonogenic and/or viability assay described below. The link between activity in tumor cell clonogenic assay and anti-tumor activity in the clinical setting has been well established in the art (e.g. see ref Silverstini et al Stem Cells 1993, 11(6), 258-35).
Cells are seeded into 96 well plates (1000-3000 cells/well) in DMEM GlutaMAX™ or other suitable media dependent on cell line and incubated overnight in 5% CO2, 37° C. Thereafter cells are treated with compound or vehicle and left in incubator for 3 days until staining with resazurin. Cells are incubated in resazurin (diluted in suitable media) at 37° C. for 2 hours before measuring the fluorescence (Ex544/Em590).
The compounds to be tested are nano-dispensed in 11 concentrations, directly in 384-well cell plates, with a final DMSO concentration <1%. Cells are seeded in cell plates, pre-dispensed with compounds, 50 μl/well (600-1200 cells/well). After 3 days culture in 5% CO2, 37° C., resazurin diluted in PBS is added, 10 μl/well, and cells are incubated 3 hours before measuring fluorescence (Ex544/Em590).

IC50 (MTH1) | IC50 (cancer cell) | SMILES
< 200 nM | < 500 nM | Cc1c(Cl)cccc1-c1cc(NCCc2ccc(NC(=O)C(C)(C)C)cc2)nc(N)n1 [Example 59, N-[4-(2-{[2-amino-6-(3-chloro-2-methylphenyl)pyrimidin-4-yl]amino}ethyl)phenyl]-2,2-dimethylpropanamide]
< 200 nM | < 500 nM | Cc1c(Cl)cccc1-c1cc(NCCc2ccc(NS(=O)(=O)CC(F)(F)F)cc2)nc(N)n1 [Example 60, N-[4-(2-{[2-amino-6-(3-chloro-2-methylphenyl)pyrimidin-4-yl]amino}ethyl)phenyl]-2,2,2-trifluoroethane-1-sulfonamide]
< 200 nM | < 500 nM | Cc1c(Cl)cccc1-c1cc(NCCc2ccc(NC(=O)NC(C)C)cc2)nc(N)n1 [Example 61, 1-[4-(2-{[2-amino-6-(3-chloro-2-methylphenyl)pyrimidin-4-yl]amino}ethyl)phenyl]-3-(propan-2-yl)urea]
< 200 nM | < 500 nM | Cc1c(Cl)cccc1-c1cc(NCCc2ccc(NC(=O)OC(C)(C)C)cc2)nc(N)n1 [Example 62, tert-butyl N-[4-(2-{[2-amino-6-(3-chloro-2-methylphenyl)pyrimidin-4-yl]amino}ethyl)phenyl]carbamate]
< 200 nM | < 500 nM | CCS(=O)(=O)Nc1ccc(CCNc2cc(-c3cccc(Cl)c3C)nc(N)n2)cc1 [Example 64, N-[4-(2-{[2-amino-6-(3-chloro-2-methylphenyl)pyrimidin-4-yl]amino}ethyl)phenyl]ethane-1-sulfonamide]
< 200 nM | < 500 nM | Cc1cc(C)c(-c2cc(NCCc3ccc(S(N)(=O)=O)cc3)nc(N)n2)cc1C [Example 65, 4-(2-{[2-amino-6-(2,4,5-trimethylphenyl)pyrimidin-4-yl]amino}ethyl)benzene-1-sulfonamide]
< 200 nM | < 500 nM | COc1cc(C)c(-c2cc(NCCc3ccc(S(N)(=O)=O)cc3)nc(N)n2)cc1C [Example 66, 4-(2-{[2-amino-6-(4-methoxy-2,5-dimethylphenyl)pyrimidin-4-yl]amino}ethyl)benzene-1-sulfonamide]
< 200 nM | < 500 nM | Cc1ccc(C)c(-c2cc(NCCc3ccc(S(N)(=O)=O)cc3)nc(N)n2)c1 [Example 70, 4-(2-{[2-amino-6-(2,5-dimethylphenyl)pyrimidin-4-yl]amino}ethyl)benzene-1-sulfonamide]
< 200 nM | < 500 nM | Cc1c(-c2cc(NCCc3ccc(S(N)(=O)=O)cc3)nc(N)n2)cc(Cl)c(Cl)c1Cl [Example 72, 4-(2-{[2-amino-6-(3,4,5-trichloro-2-methylphenyl)pyrimidin-4-yl]amino}ethyl)benzene-1-sulfonamide]
< 200 nM | < 500 nM | Cc1cc(Cl)cc(-c2cc(NCCc3ccc(S(N)(=O)=O)cc3)nc(N)n2)c1F [Example 73, 4-(2-{[2-amino-6-(5-chloro-2-fluoro-3-methylphenyl)pyrimidin-4-yl]amino}ethyl)benzene-1-sulfonamide]
< 200 nM | < 500 nM | Cc1c(Cl)cc(Cl)cc1-c1cc(NCCc2ccc(S(N)(=O)=O)cc2)nc(N)n1 [Example 74, 4-(2-{[2-amino-6-(3,5-dichloro-2-methylphenyl)pyrimidin-4-yl]amino}ethyl)benzene-1-sulfonamide]
< 200 nM | < 500 nM | Cc1c(-c2cc(NCCc3ccc(C(N)=O)cc3)nc(N)n2)cc(Cl)c(Cl)c1Cl [Example 75, 4-(2-{[2-amino-6-(3,4,5-trichloro-2-methylphenyl)pyrimidin-4-yl]amino}ethyl)benzamide]
< 200 nM | < 500 nM | Cc1c(Cl)cc(Cl)cc1-c1cc(NCCc2ccc(C(N)=O)cc2)nc(N)n1 [Example 76, 4-(2-{[2-amino-6-(3,5-dichloro-2-methylphenyl)pyrimidin-4-yl]amino}ethyl)benzamide]
< 200 nM | < 500 nM | Cc1c(F)ccc(-c2cc(NCCc3ccc(C(N)=O)cc3)nc(N)n2)c1C [Example 77, 4-(2-{[2-amino-6-(4-fluoro-2,3-dimethylphenyl)pyrimidin-4-yl]amino}ethyl)benzamide]
< 200 nM | < 500 nM | Cc1c(-c2cc(NCCc3ccc(C(N)=O)cc3)nc(N)n2)ccc(Cl)c1Cl [Example 78, 4-(2-{[2-amino-6-(3,4-dichloro-2-methylphenyl)pyrimidin-4-yl]amino}ethyl)benzamide]
< 200 nM | < 500 nM | Cc1cc(Cl)cc(-c2cc(NCCc3ccc(C(N)=O)cc3)nc(N)n2)c1F [Example 79, 4-(2-{[2-amino-6-(5-chloro-2-fluoro-3-methylphenyl)pyrimidin-4-yl]amino}ethyl)benzamide]
< 200 nM | < 500 nM | Cc1c(Cl)cccc1-c1cc(NCCc2cccc(NC(=O)C(C)(C)C)c2)nc(N)n1 [Example 81, N-[3-(2-{[2-amino-6-(3-chloro-2-methylphenyl)pyrimidin-4-yl]amino}ethyl)phenyl]-2,2-dimethylpropanamide]
< 200 nM | < 500 nM | Cc1c(Cl)cccc1-c1cc(NCCc2cccc(NC(=O)NC(C)C)c2)nc(N)n1 [Example 82, 1-[3-(2-{[2-amino-6-(3-chloro-2-methylphenyl)pyrimidin-4-yl]amino}ethyl)phenyl]-3-(propan-2-yl)urea]
< 200 nM | < 500 nM | Cc1c(Cl)cccc1-c1cc(NCCc2cccc(NC(=O)OC(C)(C)C)c2)nc(N)n1 [Example 83, tert-butyl N-[3-(2-{[2-amino-6-(3-chloro-2-methylphenyl)pyrimidin-4-yl]amino}ethyl)phenyl]carbamate]
< 200 nM | < 500 nM | Cc1c(Cl)cccc1-c1cc(NCCc2cccc(NC(=O)C3CC3)c2)nc(N)n1 [Example 84, N-[3-(2-{[2-amino-6-(3-chloro-2-methylphenyl)pyrimidin-4-yl]amino}ethyl)phenyl]cyclopropanecarboxamide]
< 200 nM | < 500 nM | Cc1c(Cl)cccc1-c1cc(NCCc2cccc(NS(=O)(=O)CC(C)C)c2)nc(N)n1 [Example 85, N-[3-(2-{[2-amino-6-(3-chloro-2-methylphenyl)pyrimidin-4-yl]amino}ethyl)phenyl]-2-methylpropane-1-sulfonamide]
< 200 nM | < 500 nM | Cc1c(Cl)cccc1-c1cc(NCCc2ccc(NS(=O)(=O)C(C)C)cc2)nc(N)n1 [Example 86, N-[4-(2-{[2-amino-6-(3-chloro-2-methylphenyl)pyrimidin-4-yl]amino}ethyl)phenyl]propane-2-sulfonamide]
< 200 nM | < 500 nM | Cc1c(Cl)cccc1-c1cc(NCCc2ccc(NS(=O)(=O)CC(C)C)cc2)nc(N)n1 [Example 87, N-[4-(2-{[2-amino-6-(3-chloro-2-methylphenyl)pyrimidin-4-yl]amino}ethyl)phenyl]-2-methylpropane-1-sulfonamide]
< 200 nM | < 500 nM | CNC(=O)c1ccc(CCNc2cc(-c3cccc(Cl)c3C)nc(N)n2)cc1 [Example 89, 4-[2-[[2-amino-6-(3-chloro-2-methyl-phenyl)pyrimidin-4-yl]amino]ethyl]-N-methyl-benzamide]
< 200 nM | < 500 nM | Cc1c(Cl)cccc1-c1cc(NCCc2ccc(C(=O)N3CCCC3)cc2)nc(N)n1 [Example 90, [4-[2-[[2-amino-6-(3-chloro-2-methyl-phenyl)pyrimidin-4-yl]amino]ethyl]phenyl]-pyrrolidin-1-yl-methanone]
